In ChEMBL document CHEMBL3885881, “DrugMatrix”:

Species on record: Rattus norvegicus
Test: DrugMatrix - Regimen: Daily Repeat
Format: toxicity, organism-based, Sprague-Dawley
Parameters: regimen Daily Repeat, gender Male, age 6-8 weeks
Conditions: in vivo, po, route oral GAVAGE, […]; for MEAN CORPUSCULAR HEMOGLOBIN CONCENTRATION / MEAN CORPUSCULAR VOLUME / MONOCYTE / NEUTROPHIL / NUCLEATED RED BLOOD CELLS / PLATELET COUNT / ABSOLUTE BASOPHIL / ABSOLUTE EOSINOPHIL / ABSOLUTE LYMPHOCYTE / ABSOLUTE MONOCYTE / ABSOLUTE SEGMENTED NEUTROPHIL / BASOPHIL / EOSINOPHIL / ERYTHROCYTE COUNT / HEMATOCRIT / HEMOGLOBIN / LEUKOCYTE COUNT / LYMPHOCYTE / MEAN CORPUSCULAR HEMOGLOBIN: tissue Blood; for ALANINE AMINOTRANSFERASE / ALBUMIN / ALKALINE PHOSPHATASE / ASPARTATE AMINOTRANSFERASE / BLOOD UREA NITROGEN / CARBON DIOXIDE / CHLORIDE / CHOLESTEROL / CREATINE PHOSPHOKINASE / CREATININE / GLUCOSE / LACTATE DEHYDROGENASE / LIPASE / PHOSPHORUS / SODIUM / TOTAL BILIRUBIN / TOTAL PROTEIN / URIC ACID: tissue Plasma
[1] = 24 mg/kg, 120 h, dose level M1, time 5 day
[2] = 47 mg/kg, 72 h, dose level High, time 3 day
[3] = 47 mg/kg, 120 h, dose level High, time 5 day

## Nc1nc2nc[nH]c2c(=S)[nH]1 [THIOGUANINE]
[1]
  MEAN CORPUSCULAR HEMOGLOBIN CONCENTRATION: 39.8 G/DL
  MEAN CORPUSCULAR VOLUME: 60.83 fL
  MONOCYTE: 0.33%
  NEUTROPHIL: 7.33%
  NUCLEATED RED BLOOD CELLS: 0 /100WBC
  PLATELET COUNT: 1721.33 x10E3/uL
  ALANINE AMINOTRANSFERASE: 38.67 u/L
  ALBUMIN: 4.13 G/DL
  ALKALINE PHOSPHATASE: 266.67 u/L
  ASPARTATE AMINOTRANSFERASE: 89.33 u/L
  BLOOD UREA NITROGEN: 11 mg/dL
  CARBON DIOXIDE: 25 mmol/L
  CHLORIDE: 104.67 MEQ/L
  CHOLESTEROL: 66 mg/dL
  CREATINE PHOSPHOKINASE: 417.33 u/L
  CREATININE: 0.23 mg/dL
  GLUCOSE: 127.67 mg/dL
  LACTATE DEHYDROGENASE: 349 u/L
  LIPASE: 9.67 u/L
  PHOSPHORUS: 10.33 mg/dL
  SODIUM: 151.33 MEQ/L
  TOTAL BILIRUBIN: 0.33 mg/dL
  TOTAL PROTEIN: 5.97 G/DL
  URIC ACID: 1.17 mg/dL
[2]
  ABSOLUTE BASOPHIL: 0 CELLS/uL
  ABSOLUTE EOSINOPHIL: 53.33 CELLS/uL
  ABSOLUTE LYMPHOCYTE: 4257 CELLS/uL
  ABSOLUTE MONOCYTE: 26.67 CELLS/uL
  ABSOLUTE SEGMENTED NEUTROPHIL: 4229.67 CELLS/uL
  BASOPHIL: 0%
  EOSINOPHIL: 0.67%
  ERYTHROCYTE COUNT: 7.05 x10E6/uL
  HEMATOCRIT: 43.87%
  HEMOGLOBIN: 17.33 G/DL
  LEUKOCYTE COUNT: 8.57 x10E3/uL
  LYMPHOCYTE: 50%
  MEAN CORPUSCULAR HEMOGLOBIN: 24.57 pg
  MEAN CORPUSCULAR HEMOGLOBIN CONCENTRATION: 39.5 G/DL
  MEAN CORPUSCULAR VOLUME: 62.23 fL
  MONOCYTE: 0.33%
  NEUTROPHIL: 49%
  NUCLEATED RED BLOOD CELLS: 0 /100WBC
  PLATELET COUNT: 1024.33 x10E3/uL
  ALANINE AMINOTRANSFERASE: 35.67 u/L
  ALBUMIN: 3.03 G/DL
  ALKALINE PHOSPHATASE: 125 u/L
  ASPARTATE AMINOTRANSFERASE: 152.67 u/L
  BLOOD UREA NITROGEN: 21 mg/dL
  CARBON DIOXIDE: 16 mmol/L
  CHLORIDE: 97 MEQ/L
  CHOLESTEROL: 46.67 mg/dL
  CREATINE PHOSPHOKINASE: 4333 u/L
  CREATININE: 0.17 mg/dL
  GLUCOSE: 263.33 mg/dL
  LACTATE DEHYDROGENASE: 399 u/L
  LIPASE: 23.33 u/L
  PHOSPHORUS: 14.77 mg/dL
  SODIUM: 139.73 MEQ/L
  TOTAL BILIRUBIN: 0.17 mg/dL
  TOTAL PROTEIN: 4.33 G/DL
  URIC ACID: 3.1 mg/dL
[3]
  ABSOLUTE BASOPHIL: 0 CELLS/uL
  ABSOLUTE EOSINOPHIL: 0 CELLS/uL
  ABSOLUTE LYMPHOCYTE: 1200 CELLS/uL
  ABSOLUTE MONOCYTE: 72 CELLS/uL
  ABSOLUTE SEGMENTED NEUTROPHIL: 1128 CELLS/uL
  BASOPHIL: 0%
  EOSINOPHIL: 0%
  ERYTHROCYTE COUNT: 6.48 x10E6/uL
  HEMATOCRIT: 41.1%
  HEMOGLOBIN: 15.9 G/DL
  LEUKOCYTE COUNT: 2.4 x10E3/uL
  LYMPHOCYTE: 50%
  MEAN CORPUSCULAR HEMOGLOBIN: 24.5 pg
  MEAN CORPUSCULAR HEMOGLOBIN CONCENTRATION: 38.7 G/DL
  MEAN CORPUSCULAR VOLUME: 63.5 fL
  MONOCYTE: 3%
  NEUTROPHIL: 47%
  NUCLEATED RED BLOOD CELLS: 0 /100WBC
  PLATELET COUNT: 877 x10E3/uL
  ALANINE AMINOTRANSFERASE: 127 u/L
  ALBUMIN: 3.5 G/DL
  ALKALINE PHOSPHATASE: 205 u/L
  ASPARTATE AMINOTRANSFERASE: 290 u/L
  BLOOD UREA NITROGEN: 35 mg/dL
  CARBON DIOXIDE: 25 mmol/L
  CHLORIDE: 100 MEQ/L
  CHOLESTEROL: 56 mg/dL
  CREATINE PHOSPHOKINASE: 284 u/L
  CREATININE: 0.1 mg/dL
  GLUCOSE: 211 mg/dL
  LACTATE DEHYDROGENASE: 156 u/L
  LIPASE: 6 u/L
  PHOSPHORUS: 9.3 mg/dL
  SODIUM: 141.5 MEQ/L
  TOTAL BILIRUBIN: 0.2 mg/dL
  TOTAL PROTEIN: 6.1 G/DL
  URIC ACID: 1.5 mg/dL
